Where only a bound is given, the exact number is not on record here.

The target of one experiment is T1, SAE (Homo sapiens, UniProt Q9UBT2).
T1 construct: endogenous in cells; host or cells: HCT116
T1 sequence (Q9UBT2 1-640): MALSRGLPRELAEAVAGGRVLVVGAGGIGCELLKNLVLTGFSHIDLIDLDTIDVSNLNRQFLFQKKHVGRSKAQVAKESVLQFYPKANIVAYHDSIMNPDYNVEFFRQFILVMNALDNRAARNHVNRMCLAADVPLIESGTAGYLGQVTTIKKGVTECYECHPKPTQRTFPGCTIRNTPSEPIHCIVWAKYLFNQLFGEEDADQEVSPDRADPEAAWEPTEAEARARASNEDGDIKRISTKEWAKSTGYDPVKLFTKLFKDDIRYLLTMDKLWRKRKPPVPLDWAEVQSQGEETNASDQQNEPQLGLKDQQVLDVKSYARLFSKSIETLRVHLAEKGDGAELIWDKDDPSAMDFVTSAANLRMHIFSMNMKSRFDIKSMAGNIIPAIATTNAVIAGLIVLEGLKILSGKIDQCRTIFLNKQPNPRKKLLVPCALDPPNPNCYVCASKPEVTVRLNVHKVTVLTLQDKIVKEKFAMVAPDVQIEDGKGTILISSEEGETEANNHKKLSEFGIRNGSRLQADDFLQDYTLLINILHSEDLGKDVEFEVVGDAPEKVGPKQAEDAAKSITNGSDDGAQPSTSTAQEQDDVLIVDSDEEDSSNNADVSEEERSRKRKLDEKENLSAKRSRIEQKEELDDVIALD
T1 sequence (Q9UBE0 1-346): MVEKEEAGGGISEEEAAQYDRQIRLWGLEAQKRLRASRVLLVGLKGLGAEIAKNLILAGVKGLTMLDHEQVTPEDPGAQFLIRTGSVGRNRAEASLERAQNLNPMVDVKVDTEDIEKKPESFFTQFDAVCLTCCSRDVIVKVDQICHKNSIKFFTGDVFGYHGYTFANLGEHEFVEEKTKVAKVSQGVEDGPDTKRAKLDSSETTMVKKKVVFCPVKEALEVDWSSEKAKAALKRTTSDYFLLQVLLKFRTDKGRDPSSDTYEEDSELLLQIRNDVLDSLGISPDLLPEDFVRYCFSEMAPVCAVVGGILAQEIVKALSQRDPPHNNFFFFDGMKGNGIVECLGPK
Kind of experiment: SUMO IF: in vitro inhibitory activity assay against SAE in HCT116 cells (SUMO-2/3 immunofluorescence). Conditions: class symbols, 6 h at 37° C. The class given is cell-based. The protocol: Biological Example 1. In Vitro Inhibitory Activity Assay of Compounds of the Present Disclosure Against SAE
HCT116 cells were seeded into a 96-well black transparent bottom plate at about 20000/well with 90 μL per well. The cells were incubated at 37° C. overnight for 24 h. The test compounds were 10-fold diluted to give a final concentration, and 10 μL of the diluted compounds was added to each well of the cell culture plate. The mixture was incubated at 37° C. for 6 h. The cells were then washed gently, the culture medium was discarded, and the cells were washed once with 200 μL of 0.1% PBST. 50 μL of 4% PFA was added to each well, and the cells were immobilized at room temperature for 20 min, and then washed with PBS 2-3 times. 50 μL of 0.2% Triton X-100 was added to each well, and the cells were left to stand at room temperature for 15 min and washed with 0.1% PBST 3 times. 100 μL of 3% BSA (0.6 g BSA+20 mL PBS) was added to each well, and the mixture was blocked at 37° C. for 30 min. After the blocking was completed, the liquid was removed and a primary antibody (SUMO-2/3 (18H8) Rabbit mAb, 1:400 dilution) was prepared with 1% BSA. 30 μL of the diluted primary antibody was added to each well, and the mixture was incubated at 4° C. overnight. The cells were washed 3 times with 200 μL of 0.1% PBST. A FITC secondary antibody (Fluorescein (FITC)-conjugated Affinipure Goat Anti-Rabbit IgG (H+L), 1:300 dilution) was further prepared with 1% BSA, and 40 μL of the diluted secondary antibody was added to each well. The mixture was incubated at room temperature in the dark for 2 h, and then the cells were washed 4 times with 0.1% PBST. The fluorescence signal of the sample was detected and compared to the DMSO group, and the inhibition rate and IC50 were calculated.
Molecule `CC1Cc2ccc(Cl)cc2[C@]2(C=Cc3sc(C(=O)c4cncnc4N[C@H]4C[C@H](O)[C@@H](COS(N)(=O)=O)[C@@H]4F)cc32)N1` (stereo partly shown) [Compound 1057] came in with an IC50 of more than 0.2 µM.

`CN1Cc2sc(C(=O)c3cncnc3N[C@H]3C[C@H](O)[C@@H](COS(N)(=O)=O)[C@@H]3F)cc2C2(C1)OCCc1ccc(Cl)cc12` (stereo partly shown) [Compound 723] returned an IC50 not above 0.05 µM. On the same count and under the same terms, next, `NS(=O)(=O)OC[C@H]1[C@H](F)[C@@H](Nc2ncncc2C(=O)c2cc3c(s2)C=CC32OCCc3ccc(F)cc32)C[C@@H]1O` (stereo partly shown) [Compound 756]: 0.05 to 0.2 µM; `NS(=O)(=O)OC[C@H]1[C@H](F)[C@@H](Nc2ncncc2C(=O)c2cc3c(s2)COCC32NCCc3c(F)cc(Cl)cc32)C[C@@H]1O` (stereo partly shown) [Compound 573]: 0.05 to 0.2 µM. On the same count and under the same terms, next, `NS(=O)(=O)OC[C@H]1[C@H](F)[C@@H](Nc2ncncc2C(=O)c2cc(C3NCCc4ccc(Cl)cc43)c(C(F)(F)F)s2)C[C@@H]1O` (stereo partly shown) [Compound 268]: 0.05 to 0.2 µM. Still for that read-out and setting: as for `Cc1sc(C(=O)c2cncnc2N[C@H]2C[C@H](O)[C@@H](CCS(N)(=O)=O)[C@@H]2F)cc1[C@@H]1NCCc2ccc(Cl)cc21` [Compound 991], the figure is 0.05 to 0.2 µM; as for `NS(=O)(=O)OC[C@H]1[C@H](F)[C@@H](Nc2ncncc2C(=O)c2cc3c(s2)CCC[C@@]32NCCc3cnc(Cl)cc32)C[C@@H]1O` [Compound 598], more than 0.2 µM. For `NS(=O)(=O)OC[C@H]1[C@H](F)[C@@H](Nc2ncncc2C(=O)c2cc3c(s2)COCC32NCCc3cc(Cl)c(Cl)cc32)C[C@@H]1O` (stereo partly shown) [Compound 561], the IC50 lay in the range of 0.05 to 0.2 µM. For `NS(=O)(=O)OC[C@H]1[C@H](F)[C@@H](Nc2ncncc2C(=O)c2cc3c(s2)C(F)(F)C[C@@]32NCCc3ccc(F)cc32)C[C@@H]1O` [Compound 625], the IC50 is more than 0.2 µM. Same read-out and setting: as for `NS(=O)(=O)OC[C@H]1[C@H](F)[C@@H](Nc2ncncc2C(=O)c2cc3c(s2)OCC32NCCc3ccc(Cl)cc32)C[C@@H]1O` (stereo partly shown) [Compound 145], the figure is 0.05 to 0.2 µM; as for `C=CCN1Cc2sc(C(=O)c3cncnc3N[C@H]3C[C@H](O)[C@@H](COS(N)(=O)=O)[C@@H]3F)cc2C2(C1)NCCc1ccc(Cl)cc12` (stereo partly shown) [Compound 654], not above 0.05 µM; as for `NS(=O)(=O)OC[C@H]1[C@H](F)[C@@H](Nc2ncncc2C(=O)c2cc3c(s2)COC[C@]32NCCc3c(F)cc(Cl)cc32)C[C@@H]1O` [Compound 575], 0.05 to 0.2 µM. Still for that read-out and setting: as for `[2H]C1([2H])CNC2(CCCc3sc(C(=O)c4cncnc4N[C@H]4C[C@H](O)[C@@H](COS(N)(=O)=O)[C@@H]4F)cc32)c2cc(Cl)ccc21` (stereo partly shown) [Compound 663], the figure is not above 0.05 µM. On the same count and under the same terms, as for `NS(=O)(=O)OC[C@H]1[C@H](F)[C@@H](Nc2ncncc2C(=O)c2cc3c(s2)COCC32NCCc3c(Cl)cc(Cl)cc32)C[C@@H]1O` (stereo partly shown) [Compound 564], the figure is 0.05 to 0.2 µM; as for `NS(=O)(=O)OC[C@H]1[C@H](F)[C@@H](Nc2ncncc2C(=O)c2cc3c(s2)CN(C2CC2)C[C@@]32OCCc3ccc(Cl)cc32)C[C@@H]1O` [Compound 742], more than 0.2 µM; as for `NS(=O)(=O)OC[C@H]1[C@H](F)[C@@H](Nc2ncncc2C(=O)c2cc3c(s2)COC[C@]32NCCc3ccc(Cl)c(F)c32)C[C@@H]1O` [Compound 569], 0.05 to 0.2 µM.

For `NS(=O)(=O)OC[C@H]1[C@H](F)[C@@H](Nc2ncncc2C(=O)c2cc3c(s2)CCCC32OCCc3ccc(F)cc32)C[C@@H]1O` (stereo partly shown) [Compound 711], the IC50 lay in the range of 0.05 to 0.2 µM. Molecule `NS(=O)(=O)OC[C@H]1[C@H](F)[C@@H](Nc2ncncc2C(=O)c2cc3c(s2)CC[C@]32NCCc3cc(F)c(Cl)cc32)C[C@@H]1O` [Compound 692] registered an IC50 not above 0.05 µM. On the same count and under the same terms, next, `NS(=O)(=O)OC[C@H]1[C@H](F)[C@@H](Nc2ncncc2C(=O)c2cc3c(s2)CCC[C@]32OCCc3ccc(F)cc32)C[C@@H]1O` [Compound 713]: not above 0.05 µM; `NS(=O)(=O)OC[C@H]1[C@H](F)[C@@H](Nc2ncncc2C(=O)c2cc3c(s2)CCCC32NC(=O)Cc3ccc(Cl)cc32)C[C@@H]1O` (stereo partly shown) [Compound 627]: more than 0.2 µM; `N#Cc1ccc2c(c1)[C@]1(CCc3sc(C(=O)c4cncnc4N[C@H]4C[C@H](O)[C@@H](COS(N)(=O)=O)[C@@H]4F)cc31)OCC2` [Compound 751]: more than 0.2 µM. Still for that read-out and setting: next, `CC1CN[C@@]2(CCCc3sc(C(=O)c4cncnc4N[C@H]4C[C@H](O)[C@@H](COS(N)(=O)=O)[C@@H]4F)cc32)c2cc(Cl)ccc21` (stereo partly shown) [Compound 1021]: more than 0.2 µM. On the same count and under the same terms, next, `CC1CNC2(C=Cc3sc(C(=O)c4cncnc4N[C@H]4C[C@H](O)[C@@H](COS(N)(=O)=O)[C@@H]4F)cc32)c2cc(Cl)ccc21` (stereo partly shown) [Compound 1053]: 0.05 to 0.2 µM; `NS(=O)(=O)CC[C@H]1[C@H](F)[C@@H](Nc2ncncc2C(=O)c2cc3c(s2)C=C[C@@]32NCCc3ccc(Cl)cc32)C[C@@H]1O` [Compound 639]: more than 0.2 µM; `CC1(C)CN[C@@]2(C=Cc3sc(C(=O)c4cncnc4N[C@H]4C[C@H](O)[C@@H](COS(N)(=O)=O)[C@@H]4F)cc32)c2cc(Cl)ccc21` [Compound 1060]: more than 0.2 µM. `CN1Cc2sc(C(=O)c3cncnc3N[C@H]3C[C@H](O)[C@@H](COS(N)(=O)=O)[C@@H]3F)cc2[C@]2(C1)OCCc1ccc(Cl)cc12` [Compound 725] registered an IC50 not above 0.05 µM. Regarding `NS(=O)(=O)OC[C@H]1[C@H](F)[C@@H](Nc2ncncc2C(=O)c2cc3c(s2)CSC[C@]32NCCc3ccc(F)cc32)C[C@@H]1O` [Compound 299], the IC50 was not above 0.05 µM. Still for that read-out and setting: next, `Cc1sc(C(=O)c2cncnc2N[C@H]2C[C@H](O)[C@@H](COS(N)(=O)=O)[C@@H]2F)cc1C1NCCc2cc(C#N)c(Cl)cc21` (stereo partly shown) [Compound 249]: 0.05 to 0.2 µM; `NS(=O)(=O)OC[C@H]1[C@H](F)[C@@H](Nc2ncncc2C(=O)c2cc3c(s2)CO[C@]32NCCc3ccc(Cl)cc32)C[C@@H]1O` [Compound 703]: 0.05 to 0.2 µM. In turn, `Cc1sc(C(=O)c2cncnc2N[C@H]2C[C@H](O)[C@@H](COS(N)(=O)=O)[C@@H]2F)cc1C1NC2(CC2)Cc2ccc(Cl)cc21` (stereo partly shown) [Compound 266] showed an IC50 of 0.05 to 0.2 µM. The same measure, in the same setting: next, `NS(=O)(=O)OC[C@H]1[C@H](F)[C@@H](Nc2ncncc2C(=O)c2cc3c(s2)CC[C@]32NCCc3cc(Cl)ncc32)C[C@@H]1O` [Compound 700]: 0.05 to 0.2 µM. Still for that read-out and setting: next, `NS(=O)(=O)OC[C@H]1[C@H](F)[C@@H](Nc2ncncc2C(=O)c2cc3c(s2)CC[C@]32NCCc3cc(Cl)c(Cl)cc32)C[C@@H]1O` [Compound 693]: not above 0.05 µM; `NS(=O)(=O)OC[C@H]1[C@H](F)[C@@H](Nc2ncncc2C(=O)c2cc3c(s2)CCC32NCCc3ccc(Cl)cc32)C[C@@H]1O` (stereo partly shown) [Compound 130]: 0.05 to 0.2 µM; `Cc1cc2c(cc1Cl)C1(CCc3sc(C(=O)c4cncnc4N[C@H]4C[C@H](O)[C@@H](COS(N)(=O)=O)[C@@H]4F)cc31)NCC2` (stereo partly shown) [Compound 155]: 0.05 to 0.2 µM.

The molecule `N#Cc1ccc2c(c1)[C@]1(CCc3sc(C(=O)c4cncnc4N[C@H]4C[C@H](O)[C@@H](COS(N)(=O)=O)[C@@H]4F)cc31)NCC2` [Compound 137] returned an IC50 of more than 0.2 µM.

The same experiment, now with this note: numeric values, 6 h at 37° C.
In turn, `CCN1Cc2sc(C(=O)c3cncnc3N[C@H]3C[C@H](O)[C@@H](COS(N)(=O)=O)[C@@H]3F)cc2[C@@]2(C1)NCCc1ccc(Cl)cc12` [Compound 646] came in with an IC50 of more than 1 µM. The same measure, in the same setting: as for `CCN1Cc2sc(C(=O)c3cncnc3N[C@H]3C[C@H](O)[C@@H](COS(N)(=O)=O)[C@@H]3F)cc2[C@]2(C1)NCCc1ccc(Cl)cc12` [Compound 647], the figure is 0.0199 µM.
